System: MV-4-11 cells
Assay: Gene expression microarray analysis (Affymetrix PrimeView) and GSEA
Type: cell-based, human
Parameters: RFU PODN (11730768_x_at) / Fold change /veh PODN (11730768_x_at) / RFU LINC00158 (11744669_a_at) / Fold change /veh LINC00158 (11744669_a_at) / RFU DUSP10 (11751237_a_at) / Fold change /veh DUSP10 (11751237_a_at) / RFU ID3 (11757404_x_at) / Fold change /veh ID3 (11757404_x_at) / RFU PLEKHG5 (11737974_s_at) / Fold change /veh PLEKHG5 (11737974_s_at) / RFU LRRC4B (11730491_at) / Fold change /veh LRRC4B (11730491_at) / RFU GIMAP4 (11747438_a_at) / Fold change /veh GIMAP4 (11747438_a_at) / RFU KRT8 (11758183_x_at) / Fold change /veh KRT8 (11758183_x_at) / RFU CNN1 (11734310_a_at) / Fold change /veh CNN1 (11734310_a_at) / RFU VPS37D (11726825_at) / Fold change /veh VPS37D (11726825_at) / RFU C10orf10 (11716522_x_at) / Fold change /veh C10orf10 (11716522_x_at) / RFU KIR2DL2 /// KIR2DL4 /// KIR2DL5A /// KIR2DL5B /// KIR2DS1 /// KIR2DS2 /// KIR2DS3 /// KIR2DS4 /// KIR3DL3 /// KIR3DL3 /// KIR3DS1 (11738374_at) / Fold change /veh KIR2DL2 /// KIR2DL4 /// KIR2DL5A /// KIR2DL5B /// KIR2DS1 /// KIR2DS2 /// KIR2DS3 /// KIR2DS4 /// KIR3DL3 /// KIR3DL3 /// KIR3DS1 (11738374_at) / RFU C1QL1 (11718748_at) / Fold change /veh C1QL1 (11718748_at) / RFU TMPRSS4 (11747572_a_at) / Fold change /veh TMPRSS4 (11747572_a_at) / RFU HAMP (11756126_x_at) / Fold change /veh HAMP (11756126_x_at) / RFU RNFT2 (11725882_a_at) / Fold change /veh RNFT2 (11725882_a_at) / RFU NR4A2 (11747474_a_at) / Fold change /veh NR4A2 (11747474_a_at) / RFU ABCC12 (11746883_a_at) / Fold change /veh ABCC12 (11746883_a_at) / RFU TMEM136 (11760407_x_at) / Fold change /veh TMEM136 (11760407_x_at) / RFU CLDN22 /// WWC2 (11732394_at) / Fold change /veh CLDN22 /// WWC2 (11732394_at) / RFU HLA-DPB1 (11760878_x_at) / Fold change /veh HLA-DPB1 (11760878_x_at) / RFU SPINT1 (11716480_a_at) / Fold change /veh SPINT1 (11716480_a_at) / RFU GAP43 (11754022_s_at) / Fold change /veh GAP43 (11754022_s_at) / RFU A4GNT (11735810_at) / Fold change /veh A4GNT (11735810_at) / RFU PRB3 (11715151_x_at) / Fold change /veh PRB3 (11715151_x_at) / RFU TUBB4B (11761932_at) / Fold change /veh TUBB4B (11761932_at) / RFU CAPN14 (11732068_a_at) / Fold change /veh CAPN14 (11732068_a_at) / RFU TMCC2 (11721928_a_at) / Fold change /veh TMCC2 (11721928_a_at) / RFU IRGQ (11745062_a_at) / Fold change /veh IRGQ (11745062_a_at) / RFU FAM174B (11720279_a_at) / Fold change /veh FAM174B (11720279_a_at) / RFU TMPRSS4 (11748680_a_at) / Fold change /veh TMPRSS4 (11748680_a_at) / RFU FAM212B (11763350_a_at) / Fold change /veh FAM212B (11763350_a_at) / RFU PLEKHG5 (11743358_a_at) / Fold change /veh PLEKHG5 (11743358_a_at) / RFU ZSCAN30 (11745921_a_at) / Fold change /veh ZSCAN30 (11745921_a_at) / RFU CMKLR1 (11741424_a_at) / Fold change /veh CMKLR1 (11741424_a_at) / RFU LOC101060620 /// MAPK8IP1 (11723275_at) / Fold change /veh LOC101060620 /// MAPK8IP1 (11723275_at) / RFU SPTSSB (11747773_x_at) / Fold change /veh SPTSSB (11747773_x_at) / RFU PRSS12 (11739890_at) / Fold change /veh PRSS12 (11739890_at) / RFU BIN1 (11741810_x_at) / Fold change /veh BIN1 (11741810_x_at) / RFU WNT11 (11732464_a_at) / Fold change /veh WNT11 (11732464_a_at) / RFU C10orf10 (11716521_a_at) / Fold change /veh C10orf10 (11716521_a_at) / RFU C5orf56 (11738089_at) / Fold change /veh C5orf56 (11738089_at) / RFU CYB561 (11721691_x_at) / Fold change /veh CYB561 (11721691_x_at) / RFU ANKRD19P (11752326_a_at) / Fold change /veh ANKRD19P (11752326_a_at) / RFU OR2T12 /// OR2T33 /// OR2T8 (11738714_s_at) / Fold change /veh OR2T12 /// OR2T33 /// OR2T8 (11738714_s_at) / RFU VCAN (11748164_a_at) / Fold change /veh VCAN (11748164_a_at) / RFU JSRP1 (11732532_at) / Fold change /veh JSRP1 (11732532_at) / RFU KRTAP10-11 (11738290_x_at) / Fold change /veh KRTAP10-11 (11738290_x_at) / RFU MYO3A (11730013_a_at) / Fold change /veh MYO3A (11730013_a_at) / RFU EBF3 (11725865_a_at) / Fold change /veh EBF3 (11725865_a_at) / RFU CAMK2N1 (11719241_x_at) / Fold change /veh CAMK2N1 (11719241_x_at) / RFU C5orf56 (11738088_a_at) / Fold change /veh C5orf56 (11738088_a_at) / RFU OLFML3 (11715873_a_at) / Fold change /veh OLFML3 (11715873_a_at) / RFU LOC100653217 /// NTM (11731650_a_at) / Fold change /veh LOC100653217 /// NTM (11731650_a_at) / RFU MAPK11 (11762145_a_at) / Fold change /veh MAPK11 (11762145_a_at) / RFU FIZ1 (11724087_x_at) / Fold change /veh FIZ1 (11724087_x_at) / RFU OASL (11726364_x_at) / Fold change /veh OASL (11726364_x_at) / RFU SOX15 (11748057_x_at) / Fold change /veh SOX15 (11748057_x_at) / RFU CD79A (11719716_a_at) / Fold change /veh CD79A (11719716_a_at) / RFU HIST1H1D (11736915_at) / Fold change /veh HIST1H1D (11736915_at) / RFU CASKIN2 (11723855_a_at) / Fold change /veh CASKIN2 (11723855_a_at) / RFU LOC730098 (11760151_x_at) / Fold change /veh LOC730098 (11760151_x_at) / RFU OR4N2 (11742367_at) / Fold change /veh OR4N2 (11742367_at) / RFU PRRT2 (11749266_a_at) / Fold change /veh PRRT2 (11749266_a_at) / RFU SNX32 (11753110_a_at) / Fold change /veh SNX32 (11753110_a_at) / RFU CDHR5 (11726645_a_at) / Fold change /veh CDHR5 (11726645_a_at) / RFU RCAN1 (11760418_a_at) / Fold change /veh RCAN1 (11760418_a_at) / RFU FAM167A (11723789_a_at) / Fold change /veh FAM167A (11723789_a_at) / RFU FAM26E (11764081_at) / Fold change /veh FAM26E (11764081_at) / RFU ISYNA1 (11749810_s_at) / Fold change /veh ISYNA1 (11749810_s_at) / RFU ACY1 (11761880_at) / Fold change /veh ACY1 (11761880_at) / RFU 11764098_at / Fold change /veh 11764098_at / RFU SAMD14 (11745864_x_at) / Fold change /veh SAMD14 (11745864_x_at) / RFU NPB (11741838_a_at) / Fold change /veh NPB (11741838_a_at) / RFU TMPRSS6 (11731388_a_at) / Fold change /veh TMPRSS6 (11731388_a_at) / RFU KRTAP10-2 (11738614_at) / Fold change /veh KRTAP10-2 (11738614_at) / RFU ARHGAP8 /// PRR5-ARHGAP8 (11727945_x_at) / Fold change /veh ARHGAP8 /// PRR5-ARHGAP8 (11727945_x_at) / RFU KRTAP5-7 /// NADSYN1 (11734609_at) / Fold change /veh KRTAP5-7 /// NADSYN1 (11734609_at) / RFU RASL12 (11751679_a_at) / Fold change /veh RASL12 (11751679_a_at) / RFU CDKN2B (11736163_a_at) / Fold change /veh CDKN2B (11736163_a_at) / RFU PRF1 (11729649_at) / Fold change /veh PRF1 (11729649_at) / RFU, ZNF638 /// ZNF638-IT1 / Fold change vs veh, ZNF638 /// ZNF638-IT1 / RFU, PANK3 / Fold change vs veh, PANK3 / RFU, SH3YL1 / Fold change vs veh, SH3YL1 / RFU, ZEB2 / Fold change vs veh, ZEB2 / RFU, NRIP1 / Fold change vs veh, NRIP1 / RFU, PTTG1IP / Fold change vs veh, PTTG1IP / RFU, CAPN2 / Fold change vs veh, CAPN2 / RFU, MED14 / Fold change vs veh, MED14 / RFU, SNORA58 / Fold change vs veh, SNORA58 / RFU, C1orf63 / Fold change vs veh, C1orf63 / RFU, LRRFIP1 / Fold change vs veh, LRRFIP1 / RFU, NDUFAF7 / Fold change vs veh, NDUFAF7 / RFU, SLC12A2 / Fold change vs veh, SLC12A2 / RFU, IBTK / Fold change vs veh, IBTK / RFU, ESF1 / Fold change vs veh, ESF1 / Fold change vs veh, TMEM50B / RFU, TAOK1 / Fold change vs veh, TAOK1 / RFU, ACBD3 / Fold change vs veh, ACBD3 / RFU, TMA16 / Fold change vs veh, TMA16 / RFU, RWDD3 / Fold change vs veh, RWDD3 / RFU, BCAT1 / Fold change vs veh, BCAT1 / RFU, EDEM3 / Fold change vs veh, EDEM3 / RFU, TMEM33 / Fold change vs veh, TMEM33 / RFU, WDR75 / Fold change vs veh, WDR75 / RFU, AHCTF1 / Fold change vs veh, AHCTF1 / RFU, TFRC / Fold change vs veh, TFRC / RFU, ZDHHC17 / Fold change vs veh, ZDHHC17 / RFU, NOM1 / Fold change vs veh, NOM1 / RFU, ARL8B / Fold change vs veh, ARL8B / RFU, ZBTB11 / Fold change vs veh, ZBTB11 / RFU, TAMM41 / Fold change vs veh, TAMM41 / RFU, KIAA1704 /// LOC100996395 / Fold change vs veh, KIAA1704 /// LOC100996395 / RFU, ING1 / Fold change vs veh, ING1 / RFU, TRMT61B / Fold change vs veh, TRMT61B / RFU, FUBP3 / Fold change vs veh, FUBP3 / RFU, TP53 / Fold change vs veh, TP53 / RFU, TNKS2 / Fold change vs veh, TNKS2 / RFU, ZFP14 / Fold change vs veh, ZFP14 / RFU, ACTR2 / Fold change vs veh, ACTR2 / RFU, PPP3R1 / Fold change vs veh, PPP3R1 / RFU, PIK3R1 / Fold change vs veh, PIK3R1 / RFU, HNRNPA1 / Fold change vs veh, HNRNPA1 / RFU, RNF170 / Fold change vs veh, RNF170 / RFU, ZNF28 / Fold change vs veh, ZNF28 / RFU, RNGTT / Fold change vs veh, RNGTT / RFU, OGT / Fold change vs veh, OGT / RFU, BRD1 / Fold change vs veh, BRD1 / RFU, MARS / Fold change vs veh, MARS / RFU, ZNF655 / Fold change vs veh, ZNF655 / RFU, FAHD1 / Fold change vs veh, FAHD1 / RFU, BDP1 / Fold change vs veh, BDP1 / RFU, LRRCC1 / Fold change vs veh, LRRCC1 / RFU, ARID1A / Fold change vs veh, ARID1A / RFU, ZNF146 / Fold change vs veh, ZNF146 / RFU, ZNF330 / Fold change vs veh, ZNF330 / RFU, GPN3 / Fold change vs veh, GPN3 / RFU, C9orf123 / Fold change vs veh, C9orf123 / RFU, N4BP2L2 / Fold change vs veh, N4BP2L2 / RFU, ARFIP1 / Fold change vs veh, ARFIP1 / RFU, FAM179B / Fold change vs veh, FAM179B / RFU, BCL10 / Fold change vs veh, BCL10 / RFU, UHRF1BP1L / Fold change vs veh, UHRF1BP1L / RFU, BET1 / Fold change vs veh, BET1 / RFU, CNOT2 / Fold change vs veh, CNOT2 / RFU, ZNF268 / Fold change vs veh, ZNF268 / Fold change vs veh, ZNF507 / RFU, DGCR2 / Fold change vs veh, DGCR2 / RFU, WDSUB1 / Fold change vs veh, WDSUB1 / Fold change vs veh, HSP90B1 /// MIR3652 / RFU, ADSS / Fold change vs veh, ADSS / RFU, GK / Fold change vs veh, GK / RFU, ZNF148 / Fold change vs veh, ZNF148 / RFU, TAF9 / Fold change vs veh, TAF9 / RFU, SLC1A5 / Fold change vs veh, SLC1A5 / RFU, SLMO2 / Fold change vs veh, SLMO2 / RFU, ABCC4 / Fold change vs veh, ABCC4 / RFU, LOC101060439 /// RAP1B / Fold change vs veh, LOC101060439 /// RAP1B / RFU, RFX7 / Fold change vs veh, RFX7 / RFU, GTPBP10 / Fold change vs veh, GTPBP10 / RFU, CNEP1R1 / Fold change vs veh, CNEP1R1 / RFU, BIVM-ERCC5 /// ERCC5 / Fold change vs veh, BIVM-ERCC5 /// ERCC5 / RFU, ILF3 / Fold change vs veh, ILF3 / RFU 11762660_at / Fold change /veh 11762660_at / RFU VCAN (11757783_s_at) / Fold change /veh VCAN (11757783_s_at) / RFU DDX43 (11728927_at) / Fold change /veh DDX43 (11728927_at) / RFU KRT8 (11758188_x_at) / Fold change /veh KRT8 (11758188_x_at) / RFU NKD1 (11759106_at) / Fold change /veh NKD1 (11759106_at) / RFU SRD5A1 (11742802_a_at) / Fold change /veh SRD5A1 (11742802_a_at) / RFU TPSAB1 /// TPSB2 (11721975_s_at) / Fold change /veh TPSAB1 /// TPSB2 (11721975_s_at) / RFU GSTM3 (11746129_a_at) / Fold change /veh GSTM3 (11746129_a_at) / RFU IL23R (11737362_x_at) / Fold change /veh IL23R (11737362_x_at) / RFU TMEM51 (11727254_a_at) / Fold change /veh TMEM51 (11727254_a_at) / RFU PIWIL2 (11732686_x_at) / Fold change /veh PIWIL2 (11732686_x_at) / RFU ORM1 (11744905_x_at) / Fold change /veh ORM1 (11744905_x_at) / RFU CCDC152 (11743942_at) / Fold change /veh CCDC152 (11743942_at) / RFU ECM1 (11717891_a_at) / Fold change /veh ECM1 (11717891_a_at) / RFU IL23R (11748794_a_at) / Fold change /veh IL23R (11748794_a_at) / RFU TNFAIP8L3 (11732012_x_at) / Fold change /veh TNFAIP8L3 (11732012_x_at) / RFU MBOAT4 (11741988_at) / Fold change /veh MBOAT4 (11741988_at) / RFU 11764193_at / Fold change /veh 11764193_at / RFU TMEM53 (11763286_at) / Fold change /veh TMEM53 (11763286_at) / RFU MAGEB2 (11727129_at) / Fold change /veh MAGEB2 (11727129_at) / RFU TMEM200A (11744735_a_at) / Fold change /veh TMEM200A (11744735_a_at) / RFU CCDC152 (11751479_a_at) / Fold change /veh CCDC152 (11751479_a_at) / RFU FAM211A (11726209_a_at) / Fold change /veh FAM211A (11726209_a_at) / RFU RGS16 (11746705_a_at) / Fold change /veh RGS16 (11746705_a_at) / RFU VCAN (11755009_s_at) / Fold change /veh VCAN (11755009_s_at) / RFU RHOB (11743442_s_at) / Fold change /veh RHOB (11743442_s_at) / RFU RGS16 (11720943_a_at) / Fold change /veh RGS16 (11720943_a_at) / RFU RGS16 (11720944_at) / Fold change /veh RGS16 (11720944_at) / RFU, VPS4B / Fold change vs veh, VPS4B / RFU, CREB1 / Fold change vs veh, CREB1 / RFU, DNAJC13 / Fold change vs veh, DNAJC13 / RFU, GNAQ / Fold change vs veh, GNAQ / RFU, CDK5R1 / Fold change vs veh, CDK5R1 / RFU, ZRANB3 / Fold change vs veh, ZRANB3 / RFU, CUL4A / Fold change vs veh, CUL4A / RFU, CCNY / Fold change vs veh, CCNY / RFU, UFL1 / Fold change vs veh, UFL1 / RFU, COG3 / Fold change vs veh, COG3 / RFU, DIAPH2 / Fold change vs veh, DIAPH2 / RFU, SKA2 / Fold change vs veh, SKA2 / RFU, AFF3 / Fold change vs veh, AFF3 / RFU, LMF1 / Fold change vs veh, LMF1 / RFU, IPO11 / Fold change vs veh, IPO11 / RFU, DFFB / Fold change vs veh, DFFB / RFU, FOXP1 / Fold change vs veh, FOXP1 / RFU, CARD8 / Fold change vs veh, CARD8 / RFU, STRN3 / Fold change vs veh, STRN3 / RFU, ADK / Fold change vs veh, ADK / RFU, RASSF2 / Fold change vs veh, RASSF2 / RFU, WIPF1 / Fold change vs veh, WIPF1 / RFU, LARP1B / Fold change vs veh, LARP1B / RFU, RASA1 / Fold change vs veh, RASA1 / RFU, RB1 / Fold change vs veh, RB1 / RFU, PPFIA1 / Fold change vs veh, PPFIA1 / RFU, MAT2A / Fold change vs veh, MAT2A / RFU, CCT5 / Fold change vs veh, CCT5 / RFU, WDR92 / Fold change vs veh, WDR92 / RFU, CUX1 / Fold change vs veh, CUX1 / RFU, TTC7A / Fold change vs veh, TTC7A / RFU, TMEM135 / Fold change vs veh, TMEM135 / RFU, DEPTOR / Fold change vs veh, DEPTOR / RFU, CPM / Fold change vs veh, CPM / RFU, DNAJB6 / Fold change vs veh, DNAJB6 / RFU, CACNA2D3 / Fold change vs veh, CACNA2D3 / RFU, DTX4 / Fold change vs veh, DTX4 / RFU, TFCP2 / Fold change vs veh, TFCP2 / RFU, GMCL1 /// GMCL1P1 / Fold change vs veh, GMCL1 /// GMCL1P1 / RFU, AEBP2 / Fold change vs veh, AEBP2 / RFU, SNHG1 /// SNORD22 /// SNORD25 /// SNORD26 /// SNORD27 /// SNORD28 /// SNORD29 /// SNORD31 / Fold change vs veh, SNHG1 /// SNORD22 /// SNORD25 /// SNORD26 /// SNORD27 /// SNORD28 /// SNORD29 /// SNORD31 / Fold change (Aza/veh), C12orf56 (ProbeSet 11735607_a_at) / Fold change (ACY-1035/veh), C12orf56 (ProbeSet 11735607_a_at) / Fold change (Aza/veh), FGFR1OP (ProbeSet 11751329_s_at) / Fold change (ACY-1035/veh), FGFR1OP (ProbeSet 11751329_s_at) / Fold change (Aza/veh), VPS36 (ProbeSet 11739960_a_at) / Fold change (ACY-1035/veh), VPS36 (ProbeSet 11739960_a_at) / RFU SYPL1 (11715823_x_at) / Fold change /veh SYPL1 (11715823_x_at) / RFU IGFBP7 (11715501_s_at) / Fold change /veh IGFBP7 (11715501_s_at) / RFU REEP3 (11722064_at) / Fold change /veh REEP3 (11722064_at) / RFU IGLL1 (11728026_x_at) / Fold change /veh IGLL1 (11728026_x_at): dose or concentration left out as unconfirmed
Details: MV-4-11 cells, 48 hours

Which “RFU SPINT1 (11716480_a_at)” value does the source give for `Nc1ccc(-c2cccs2)cc1NC(=O)c1ccc2c(c1)cc(C1CC1)n2CCN1CCOCC1` [ACY-1035] here?
The value was 24.20 RFU.

Source: article PMC5218480 (PLoS ONE, 2017)
